Values quoted from earlier work in patent US20210401766A1, “Method of Using Cannabinoids Encapsulated in Phospholipid Carriers for Transmucosal and Transdermal Administration” (NuVessl, Inc., priority 2018, published 2021).

C=C(C)[C@@H]1CCC(C)=C[C@H]1c1c(O)cc(CCCCC)cc1O [CBD, Cannabidiol]
Duration of effects (oral administration): 5 to 8 h | Bioavailability (oromucosal): approximately 35% | Bioavailability (average) (smoking and vaporizing): around 40% | Bioavailability (range) (smoking and vaporizing): 2%-56% | Length of time CBD remains in the body (smoking and vaporizing): around 3 hours
